In patent publication US20070270462A1, “8-hydroxyquinoline compounds for treating a polyglutamine (polyQ)-expansion disease” (priority 2005, published 2007):

Assays:
[1] = tested on: Htt exon1-Q103-egfp; assay: Pulse-chase assay of Htt exon1-Q103-egfp turnover; assay type: cell-based; conditions: HEK293 cells, 4 μM CQ
Protocol: HEK293 cells at 90% confluence on 100 mm plates coated with poly-D-lysine (0.1 μg/μl) were transfected for 4 hr in Opti-MEM medium before replacement of the medium with MEM supplemented with 10% v/v FBS. After another 5 hr incubation, cells were trypsinized and replated in two wells of a 6-well plate, then incubated for another 14 hr at 37° C. The medium was replaced with methionine-free MEM medium supplemented with 5% v/v FBS, and cells incubated for 1.5 hr with 4 μM of CQ or DMSO vehicle added during the last 30 min of incubation. One mCi of Smethionine (Amersham Biosciences, Piscataway, N.J.) in 12 ml of methionine-free MEM was prepared as a pulse stock medium. Cells were pulsed for 10 min by replacing the medium with 1 ml of the pulse stock medium. At different time points, cells were washed twice with ice-cold PBS and lysed in 1 ml of IP lysis buffer (50 mM Tris-HCl, pH 7.5, 150 mM NaCl, 1% v/v NP-40, 0.5% v/v sodium deoxycholate, 1 tab mini-complete protease inhibitor/10 ml buffer). Cells were harvested by scraping, placed in 1.5 ml microcentrifuge tube, and lysed with constant agitation at 4° C. for at least 30 min before immunoprecipitation of the Htt^exon1-Q103-egfp protein using anti-polyglutamine antibody and protein G agarose beads (Roche, Indianapolis, Ind., USA). Assays were performed at least three times. […]

[2] = tested on: Htt exon1-Q103-egfp transfected PC12 cells; assay: cells; assay type: cell-based
Text: PolyQ-htt-GFP fusion constructs, in which the polyglutamine region is encoded by CAA and CAG-containing tandem repeats ([…]) [SEQ ID NO: 1], human polyglutaminen, were obtained from the Hereditary Disease Foundation, Santa Monica, Calif., USA. PC12 and HEK293 cells were maintained in MEM supplemented with 10% v/v FBS, switched to Opti-MEM without serum for 6 hrs during transfection using Lipofectamine 2000 (Invitrogen, Carlsbad, Calif., USA), and returned to serum-containing medium thereafter (up to 48 hours). […] Control cultures received equivalent amounts of DMSO-containing vehicle (<0.1% w/v DMSO, final concentration).
Plasma membrane integrity was evaluated using propidium iodide at 20 μg/ml final concentration. Approximately 200 cells transfected with the Htt^exon1-Q103-egf plasmid were counted for each treatment group 48 hr after transfection. Cells were at that time as expanded protein accumulation had reached a plateau, and 90% of cell death occurred by this time point. The experiment was repeated twice and counts were averaged. Counts of transfected cells were averaged from three independent, randomly-selected fields. ImageJ 1.32j (National Institutes of Health, USA), was used to measure the size of the lateral ventricles (n≧6 for each group). […]

[3] = tested on: R6/2 mice; assay: Foot clasping test in R6/2 mice; assay type: in vivo, mouse; conditions: R6/2 mice at 10 weeks
Protocol: A colony of transgenic mice strain R6/2 that is heterozygous for htt exon1 (containing 145 CAG repeats) was maintained, with founders originating and available from The Jackson Laboratory (Bar Harbor, Me., USA). Male transgenic R6/2 mice were bred with background strain (B6CBAFI/J) females. Genotyping was done according to Hockly et al, Brain Res Bull 61, 469-479, 2003. CQ in water was orally administered to mice at 30 mg/kg/day starting at 3 weeks of age and continued until the mice were deceased or sacrificed for tissues. Littermate R6/2 mice were gavaged with water vehicle alone. […] Blood glucose levels were determined after at least 8 hrs of fasting in 11-week old mice (n=6 for wild-type, n=4 for vehicle-treated R6/2, n=6 for CQ-treated R6/2 littermates) using a 2300 STAT Plus glucose analyzer (YSI, Yellowsonte, Ohio, USA). Fasting blood insulin levels in animals fasted for 8 hrs were measured using an Ultra Sensitive Rat Insulin ELISA Kit (Crystal Chem, Inc., Downers Grove, Ill., USA) according to manufacturer's instructions.
Rotarod performance (n≧6 for each treatment group) was assessed as described by Hockly et al., 2003 Supra with the modification that the SDI Rota-Rod (San Diego Instruments, San Diego, Calif.) was set to linearly increase in speed to 40 rpm in 4 min ramp time. […]

Compound: Oc1c(I)cc(Cl)c2cccnc12 [CQ, 5-chloro-7-iodo-8-hydroxy-quinoline]
- rates of Q103-egfp degradation in the presence of CQ [1]: No significant differences
- EC50 ([2]; Rattus norvegicus, PC-12, Htt exon1-Q103-egfp cells, PI staining, 48 hr after transfection, read-out: cell survival improvement, half maximal effect): 1000 to 2000 nM
- CQ concentration at which cell death began to increase (toxic effects of CQ) ([2]; rat, 48 h): 8 µM
- average clasping score ([3]; score of 3 maximum, oral CQ 30 mg/kg/day): 1.3
- reduction of average clasping score ([3]; versus vehicle (2.5)): 48%
